Assay results reported in US8680133B2, “Alkyl indole-3-carbinol-derived antitumor agents” (The Ohio State University Research Foundation, priority 2009, dated 2014).
Entries after “also recorded” stand apart in the source; their conditions may differ.

Assays:
[1] = system: HOP-62; assay: NCI60 screening, Non-Small Cell Lung Cancer, HOP-62; format: cell-based, human
[2] = system: CAKI-1; assay: NCI60 screening, Renal Cancer, CAKI-1; format: cell-based, human
[3] = system: PC-3 prostate cancer cells; assay: MTT assay of PC-3 cell viability; format: cell-based; conditions: MTT assay, 24, 48 and 72 h; comparison in words
Experimental: Each data point represents means±S.D. (n=6). The activity of OSU-A9M versus its parent compound A9 ([1-(3′-nitro-4′-chlorobenzenesulfonyl)-1H-indol-3-yl]-methanol) and its fluorinated counterpart OSU-A9F ([1-(4-Chloro-3-nitro-benzenesulfonyl)-5-fluoro-1H-indol-3-yl])-methanol in suppressing the cell viability of PC-3 prostate cancer cells was compared using the MTT [3-(4,5-dimethylthiazol-2-yl)-2,5-diphenyl-2H-tetrazolium bromide] assay. Cancer cells and PrECs were grown in 5% FBS-supplemented RPMI 1640 medium or 5% FBS-supplemented prostate epithelial growth medium, respectively, in 96-well, flat-bottomed plates for 24 h, and then exposed to various concentrations of test agents in the same medium for the indicated time intervals. Controls received DMSO vehicle at a concentration equal to that in drug-treated cells. At the end of the treatment, the medium was removed, replaced by 200 μL of 0.5 mg/mL of MTT in the same medium, and cells were incubated in the CO2 incubator at 37° C. for 2 h. Supernatants were removed from the wells, and the reduced MTT dye was solubilized in 200 μL/well DMSO. Absorbance at 570 nm was determined on a plate reader.

[4] = system: NCl/ADR-RES; assay: NCI60 screening, Ovarian Cancer, NCl/ADR-RES; format: cell-based, human
[5] = system: SNB-19; assay: NCI60 screening, CNS Cancer, SNB-19; format: cell-based, human
[6] = system: human tumor cell lines of the cancer screening panel; assay: NCI 60 cell line screening, whole panel, comparison with OSU-A9; format: cell-based; conditions: OSU-A9 data not shown
[7] = system: HCT-15; assay: NCI60 screening, Colon Cancer, HCT-15; format: cell-based, human
[8] = system: SN12C; assay: NCI60 screening, Renal Cancer, SN12C; format: cell-based, human
[9] = system: MDA-MB-468; assay: NCI60 screening, Breast Cancer, MDA-MB-468; format: cell-based, human
[10] = system: BT-549; assay: NCI60 screening, Breast Cancer, BT-549; format: cell-based, human
[11] = system: ACHN; assay: NCI60 screening, Renal Cancer, ACHN; format: cell-based, human
[12] = system: EKVX; assay: NCI60 screening, Non-Small Cell Lung Cancer, EKVX; format: cell-based, human
[13] = system: OVCAR-8; assay: NCI60 screening, Ovarian Cancer, OVCAR-8; format: cell-based, human
[14] = system: PC-3; assay: NCI60 screening, Prostate Cancer, PC-3; format: cell-based, human
[15] = system: TK-10; assay: NCI60 screening, Renal Cancer, TK-10; format: cell-based, human
[16] = system: SK-MEL-28; assay: NCI60 screening, Melanoma, SK-MEL-28; format: cell-based, human
[17] = Homo sapiens, read-out: LC50 (the source's name)

Cc1ccc2c(c1)c(CO)cn2S(=O)(=O)c1ccc(Cl)c([N+](=O)[O-])c1 [OSU-A9M, [1-(4-chloro-3-nitro-benzenesulfonyl)-5-methyl-1H-indol-3-yl]-methanol]
TGI [1]: 3.11E−6
GI50 ([1]; Homo sapiens): 1.74 µM
CC50 [1, 17]: 5.58 µM
Percent Growth ([1]; Log10 Concentration −4.0): −99%
Percent Growth ([1]; Log10 Concentration −5.0): −100%
Percent Growth ([1]; Log10 Concentration −6.0): 97%
Percent Growth ([1]; Log10 Concentration −7.0): 95%
Percent Growth ([1]; Log10 Concentration −8.0): 98%
TGI [2]: 2.90E−6
GI50 ([2]; Homo sapiens): 1.48 µM
CC50 [2, 17]: 5.7 µM
Percent Growth ([2]; Log10 Concentration −4.0): −95%
Percent Growth ([2]; Log10 Concentration −5.0): −92%
Percent Growth ([2]; Log10 Concentration −6.0): 79%
Percent Growth ([2]; Log10 Concentration −7.0): 95%
Percent Growth ([2]; Log10 Concentration −8.0): 92%
In vitro potency against the viability of PC-3 cells [3]: greater than or similar to that of OSU-A9; also recorded: greater potency than OSU-A9 and OSU-A9F
TGI [4]: 3.32E−6
GI50 ([4]; Homo sapiens): 1.81 µM
CC50 [4, 17]: 6.09 µM
Percent Growth ([4]; Log10 Concentration −4.0): −93%
Percent Growth ([4]; Log10 Concentration −5.0): −91%
Percent Growth ([4]; Log10 Concentration −6.0): 99%
Percent Growth ([4]; Log10 Concentration −7.0): 102%
Percent Growth ([4]; Log10 Concentration −8.0): 96%
TGI [5]: 2.97E−6
GI50 ([5]; Homo sapiens): 1.62 µM
CC50 [5, 17]: 5.45 µM
Percent Growth ([5]; Log10 Concentration −4.0): −100%
Percent Growth ([5]; Log10 Concentration −5.0): −100%
Percent Growth ([5]; Log10 Concentration −6.0): 90%
Percent Growth ([5]; Log10 Concentration −7.0): 86%
Percent Growth ([5]; Log10 Concentration −8.0): 88%
Potency in suppressing cancer cell growth compared with OSU-A9 [6]: significantly higher potency
TGI [7]: 2.82E−6
GI50 ([7]; Homo sapiens): 1.5 µM
CC50 [7, 17]: 5.31 µM
Percent Growth ([7]; Log10 Concentration −4.0): −100%
Percent Growth ([7]; Log10 Concentration −5.0): −100%
Percent Growth ([7]; Log10 Concentration −6.0): 82%
Percent Growth ([7]; Log10 Concentration −7.0): 94%
Percent Growth ([7]; Log10 Concentration −8.0): 92%
TGI [8]: 2.99E−6
GI50 ([8]; Homo sapiens): 1.41 µM
CC50 [8, 17]: 6.31 µM
Percent Growth ([8]; Log10 Concentration −4.0): −88%
Percent Growth ([8]; Log10 Concentration −5.0): −81%
Percent Growth ([8]; Log10 Concentration −6.0): 73%
Percent Growth ([8]; Log10 Concentration −7.0): 92%
Percent Growth ([8]; Log10 Concentration −8.0): 68%
TGI [9]: 2.18E−6
GI50 ([9]; Homo sapiens): 0.979 µM
CC50 [9, 17]: 4.78 µM
Percent Growth ([9]; Log10 Concentration −4.0): −95%
Percent Growth ([9]; Log10 Concentration −5.0): −97%
Percent Growth ([9]; Log10 Concentration −6.0): 50%
Percent Growth ([9]; Log10 Concentration −7.0): 86%
Percent Growth ([9]; Log10 Concentration −8.0): 90%
TGI [10]: 3.13E−6
GI50 ([10]; Homo sapiens): 1.67 µM
CC50 [10, 17]: 5.89 µM
Percent Growth ([10]; Log10 Concentration −4.0): −92%
Percent Growth ([10]; Log10 Concentration −5.0): −92%
Percent Growth ([10]; Log10 Concentration −6.0): 91%
Percent Growth ([10]; Log10 Concentration −7.0): 87%
Percent Growth ([10]; Log10 Concentration −8.0): 85%
TGI [11]: 3.14E−6
GI50 ([11]; Homo sapiens): 1.76 µM
CC50 [11, 17]: 5.6 µM
Percent Growth ([11]; Log10 Concentration −4.0): −100%
Percent Growth ([11]; Log10 Concentration −5.0): −100%
Percent Growth ([11]; Log10 Concentration −6.0): 99%
Percent Growth ([11]; Log10 Concentration −7.0): 93%
Percent Growth ([11]; Log10 Concentration −8.0): 98%
TGI [12]: 3.15E−6
GI50 ([12]; Homo sapiens): 1.6 µM
CC50 [12, 17]: 6.21 µM
Percent Growth ([12]; Log10 Concentration −4.0): −93%
Percent Growth ([12]; Log10 Concentration −5.0): −85%
Percent Growth ([12]; Log10 Concentration −6.0): 85%
Percent Growth ([12]; Log10 Concentration −7.0): 99%
Percent Growth ([12]; Log10 Concentration −8.0): 91%
TGI [13]: 3.95E−6
GI50 ([13]; Homo sapiens): 1.93 µM
CC50 [13, 17]: 8.09 µM
Percent Growth ([13]; Log10 Concentration −4.0): −84%
Percent Growth ([13]; Log10 Concentration −5.0): −65%
Percent Growth ([13]; Log10 Concentration −6.0): 96%
Percent Growth ([13]; Log10 Concentration −7.0): 101%
Percent Growth ([13]; Log10 Concentration −8.0): 97%
TGI [14]: 4.32E−6
GI50 ([14]; Homo sapiens): 1.62 µM
CC50 [14, 17]: 13.9 µM
Percent Growth ([14]; Log10 Concentration −4.0): −93%
Percent Growth ([14]; Log10 Concentration −5.0): −43%
Percent Growth ([14]; Log10 Concentration −6.0): 75%
Percent Growth ([14]; Log10 Concentration −7.0): 74%
Percent Growth ([14]; Log10 Concentration −8.0): 80%
TGI [15]: 2.98E−6
GI50 ([15]; Homo sapiens): 1.56 µM
CC50 [15, 17]: 5.71 µM
Percent Growth ([15]; Log10 Concentration −4.0): −89%
Percent Growth ([15]; Log10 Concentration −5.0): −93%
Percent Growth ([15]; Log10 Concentration −6.0): 84%
Percent Growth ([15]; Log10 Concentration −7.0): 83%
Percent Growth ([15]; Log10 Concentration −8.0): 90%
TGI [16]: 2.91E−6
GI50 ([16]; Homo sapiens): 1.57 µM
LC50 ([16]; Homo sapiens): 5.4 µM
Percent Growth ([16]; Log10 Concentration −4.0): −100%
Percent Growth ([16]; Log10 Concentration −5.0): −100%
Percent Growth ([16]; Log10 Concentration −6.0): 87%
Percent Growth ([16]; Log10 Concentration −7.0): 89%
Percent Growth ([16]; Log10 Concentration −8.0): 93%
